Patent US11299760B2 (Amgen Inc., priority 2013, dated 2022)

Tests used:
[1] = tested on: recombinant cell line producing MAb E; experiment: ATF bioreactors, cell culture performance; type: cell-based; conditions: 500 nM monensin for ~22 hours from day 8; ATF reactors Ra, Rb
Experimental: Cells in the control reactor (black circles) were grown in the absence of monensin. Viable cell density is illustrated in FIG. 1. FIG. 2 presents the results of viability analysis. […] Daily spent medium samples were also submitted for titer analysis.
The applicability of using monensin to modulate high mannose levels in a large scale, controlled production setting was evaluated using a recombinant cell line producing MAb E in alternating tangential flow (ATF) bioreactors. MAb E cells grown in growth medium for the seed train were used to inoculate the N-1 bioreactor at 6×10^5 cells/ml in growth medium. The cells from N-1 bioreactor were then used to inoculate three, 2 L production bioreactors (N) at 7.5×10^5 cells/ml in base perfusion medium (referred to as control, Ra, and Rb bioreactors).
The production bioreactors were grown for 20 days at pH 7.00, 36° C., 30% DO and 400 rpm agitation. These production tanks were run with the ATF system starting on day 3 with 0.5 vol/day perfusion rate, which was increased to 0.6 vol/day, 0.8352 vol/day and 1 vol/day on day 6, 7 and 8, respectively. Glucose levels were maintained separately at 5 g/L since the perfusion medium was prepared without glucose.
Antifoam was also added into the tank as needed, while 1M Sodium Carbonate was used to maintain pH at the desired setpoint. […]

[2] = tested on: recombinant CHO cell line producing an antibody (MAb A); experiment: six day batch assay, glycan analysis (HILIC); type: cell-based, Chinese hamster; design: Total HM: unit not given here; conditions: for Man5 / Man6 / Man7 / Man8a / Man8b / Total HM: day 6
Experimental: Cells were centrifuged at 1500 rpm for five minutes and seeded at 2×10^6 cells per ml into batch production medium in a 24 deep-well plate at a final volume of 3 ml.
Cell density and viability were measured by Guava easyCyte flow cytometer (Milipore, Billerica, Mass.) with the ViaCount application. Cultures were spun down, supernatants were filtered on 0.4 micron filters, and were analyzed for titer and glycan distribution.
For glycan analysis, Peptide-N-Glycosidase F (PNGAse F)—released N-linked glycans from protein A purified antibodies were labeled with 2-aminobenzoic acid (2-AA) and separated by HILIC (hydrophilic interaction liquid chromatography) in-line with a fluorescence detector. The separation was performed using a Waters Acquity UPLC (Waters, Milford, Mass.). In-line mass spectrometry (MS), using an ion trap mass spectrometer (LTQ; Thermo Scientific, Waltham, Mass.) in positive mode, was incorporated to accommodate mass determination of species. Glycans were injected and bound to the column in high organic conditions and were then eluted with an increasing gradient of an aqueous ammonium formate buffer. Fast separation times were achieved using a […] small particle column format (Acquity UPLC BEH Glycan Column, 2.1×100 mm; Waters, Milford, Mass.).

In the case of `CC[C@@]1([C@@H]2O[C@@H]([C@H]3O[C@@](O)(CO)[C@H](C)C[C@@H]3C)C[C@@H]2C)CC[C@H]([C@]2(C)CC[C@]3(C[C@H](O)[C@@H](C)[C@@H]([C@@H](C)[C@@H](OC)[C@H](C)C(=O)O)O3)O2)O1` [monensin], the “impact on cell growth and viability” value [1] is reported as “slight negative impact on cell growth and viability”, the “titers compared to the control tank” value [1] is reported as “marginally improved titers” and the Man5 ([2]; 0.1 nM monensin added day 1) is reported as 0.775%. It also gave a Man6 ([2]; 0.1 nM monensin added day 1) of 0.09%, a Man7 ([2]; 0.1 nM monensin added day 1) of 0% and a Man8a ([2]; 0.1 nM monensin added day 1) of 0.31%. For the same compound, the Man8b ([2]; 0.1 nM monensin added day 1) was 0%, the “Total HM” value ([2]; 0.1 nM monensin added day 1) was 0.8 and the Man5 ([2]; 0.5 nM monensin added day 1) was 0.785%. The Man6 ([2]; 0.5 nM monensin added day 1) was 0.07%, the Man7 ([2]; 0.5 nM monensin added day 1) was 0% and the Man8a ([2]; 0.5 nM monensin added day 1) was 0.3%. For the same compound, the Man8b ([2]; 0.5 nM monensin added day 1) was 0%, the “Total HM” value ([2]; 0.5 nM monensin added day 1) was 0.85 and the Man5 ([2]; 1 nM monensin added day 1) was 0.89%. It also gave a Man6 ([2]; 1 nM monensin added day 1) of 0.13%, a Man7 ([2]; 1 nM monensin added day 1) of 0.04% and a Man8a ([2]; 1 nM monensin added day 1) of 0.29%. For the same compound, the Man8b ([2]; 1 nM monensin added day 1) was 0%, the “Total HM” value ([2]; 1 nM monensin added day 1) was 1.05 and the Man5 ([2]; 5 nM monensin added day 1) was 1.12%. For the same compound, the Man6 ([2]; 5 nM monensin added day 1) was 0.18%, the Man7 ([2]; 5 nM monensin added day 1) was 0.27% and the Man8a ([2]; 5 nM monensin added day 1) was 0.37%. For the same compound, the Man8b ([2]; 5 nM monensin added day 1) was 0%, the “Total HM” value ([2]; 5 nM monensin added day 1) was 1.35 and the Man5 ([2]; 10 nM monensin added day 1) was 1.485%. The Man6 ([2]; 10 nM monensin added day 1) was 0.16%, the Man7 ([2]; 10 nM monensin added day 1) was 0% and the Man8a ([2]; 10 nM monensin added day 1) was 0.315%. For the same compound, the Man8b ([2]; 10 nM monensin added day 1) was 0%, the “Total HM” value ([2]; 10 nM monensin added day 1) was 1.6 and the “increase of total high mannose glycans on the recombinant antibody” value ([2]; 25 nM bolus on day 0 or 200 nM or 100 nM bolus on day 3) was 6 to 30 fold. It also gave a Man5 ([2]; 25 nM monensin added day 1) of 6.43%, a Man6 ([2]; 25 nM monensin added day 1) of 0.59% and a Man7 ([2]; 25 nM monensin added day 1) of 0.59%. For the same compound, the Man8a ([2]; 25 nM monensin added day 1) was 0.39%, the Man8b ([2]; 25 nM monensin added day 1) was 0.115% and the “Total HM” value ([2]; 25 nM monensin added day 1) was 7.65. The “effect on high mannose and on cell growth, viability and titer” value ([2]; 50 nM incubated for six days and 500 nM incubated for three days) was “large increases in high mannose at the expense of cell growth, viability and titer”, the Man5 ([2]; 50 nM monensin added day 1) was 15.725% and the Man6 ([2]; 50 nM monensin added day 1) was 4.64%. The Man7 ([2]; 50 nM monensin added day 1) was 4.73%, the Man8a ([2]; 50 nM monensin added day 1) was 0.8% and the Man8b ([2]; 50 nM monensin added day 1) was 2.02%. The “Total HM” value ([2]; 50 nM monensin added day 1) was 25.1, the Man5 ([2]; 100 nM monensin added day 3) was 19.365% and the Man6 ([2]; 100 nM monensin added day 3) was 7.475%. For the same compound, the Man7 ([2]; 100 nM monensin added day 3) was 6.795%, the Man8a ([2]; 100 nM monensin added day 3) was 0.8% and the Man8b ([2]; 100 nM monensin added day 3) was 2.635%. The “Total HM” value ([2]; 100 nM monensin added day 3) was 33.65, the Man5 ([2]; 200 nM monensin added day 3) was 18.585% and the Man6 ([2]; 200 nM monensin added day 3) was 4.975%. It also gave a Man7 ([2]; 200 nM monensin added day 3) of 3.795%, a Man8a ([2]; 200 nM monensin added day 3) of 0.61% and a Man8b ([2]; 200 nM monensin added day 3) of 1.17%. For the same compound, the “Total HM” value ([2]; 200 nM monensin added day 3) was 27.35, the Man5 ([2]; 500 nM monensin added day 3) was 11.735% and the Man6 ([2]; 500 nM monensin added day 3) was 1.545%. It also gave a Man7 ([2]; 500 nM monensin added day 3) of 1.045%, a Man8a ([2]; 500 nM monensin added day 3) of 0.355% and a Man8b ([2]; 500 nM monensin added day 3) of 0.2%. For the same compound, the “Total HM” value ([2]; 500 nM monensin added day 3) was 14.3 and the “impact on high mannose or cell culture parameters” value ([2]; monensin concentrations between 0.1 to 10 nM) was “no impacts on high mannose or cell culture parameters”.
